Laboratory results as given in patent publication US20060069132A1, “Azolecarboxamide herbicides” (priority 2004, published 2006).
Read-outs that look alike come from different tables or passages of the source.

Assays:
wheat = experiment: Test B postemergence herbicide test; type: in vivo, Triticum aestivum; settings: Triticum aestivum, post-emergence, 336 h, postemergence, 500 g ai/ha; visual rating, scale 0 (no effect) to 100 (complete control); read-out: Wheat plant response rating
In short: (§1)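 Formulated test chemicals went onto postemergence plants measuring 2 to 18 cm, at one to four leaves. For the paddy assay, species had reached two leaves. Scoring took place 13–15 days later by eye, relative to untreated plants, using 0 for no effect up to 100 for full control.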

pigweed = experiment: Test B pre-/postemergence herbicide test; type: in vivo, Amaranthus retroflexus; settings: Amaranthus retroflexus, 336 h; for pest or weed control at 125 g/ha: 125 g ai/ha; for pest or weed control at 500 g/ha: 500 g ai/ha
In short: (§2)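 Flooded paddy rice and barnyardgrass were treated at the 2-leaf stage; upland plantings received compound either on sown seed or on 1- to 4-leaf seedlings. All were kept 13–15 days in a greenhouse and scored visually, 0–100, relative to untreated plants.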

velvetleaf = experiment: Test B pre-/postemergence herbicide test; type: in vivo, Abutilon theophrasti; settings: Abutilon theophrasti, 336 h; for pest or weed control at 125 g/ha: 125 g ai/ha; for pest or weed control at 500 g/ha: 500 g ai/ha
In short: as §2

rice = experiment: Test B flooded paddy test; type: in vivo, Oryza sativa; settings: Oryza sativa, 336 h, 1000 g ai/ha, visual rating, scale 0 to 100 (0 no effect, 100 complete control), 13 to 15 days, read-out: Rice plant response rating
In short: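 After treating 2-leaf paddy plants or 2–18 cm postemergence plants (1 to 4 leaves) with formulated chemical, researchers kept them in a greenhouse for 13–15 days. Effects were judged visually versus controls: 0 indicates none, 100 total control.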

giant foxtail = experiment: Test B pre-/postemergence herbicide test; type: in vivo, Setaria faberi; settings: Setaria faberi, 336 h; for pest or weed control at 125 g/ha: 125 g ai/ha; for pest or weed control at 500 g/ha: 500 g ai/ha
In short: as §2

cocklebur = experiment: Test B pre-/postemergence herbicide test; type: in vivo, Xanthium strumarium; settings: Xanthium strumarium; for pest or weed control at 125 g/ha: 125 g ai/ha; for pest or weed control at 500 g/ha: 500 g ai/ha
In short: (§3)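 Plants compared with untreated controls 13–15 days post-treatment and given a visual 0–100 injury score. Applications: preemergence to seeds; postemergence at 1- to 4-leaf (2–18 cm); paddy species flooded, 2-leaf stage. Vehicle non-phytotoxic, surfactant included.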

blackgrass = experiment: Test B postemergence herbicide test; type: in vivo, Alopecurus myosuroides; settings: Alopecurus myosuroides, post-emergence, 336 h, postemergence, visual rating, scale 0 (no effect) to 100 (complete control), read-out: Blackgrass plant response rating
In short: as §1

barnyardgrass [1] = experiment: Test B flooded paddy test; type: in vivo, Echinochloa crus-galli; settings: Echinochloa crus-galli, 336 h, 1000 g ai/ha, visual rating, scale 0 to 100 (0 no effect, 100 complete control), 13 to 15 days, read-out: Barnyardgrass plant response rating
In short: as §1

wild oat = experiment: Test B postemergence herbicide test; type: in vivo, Avena fatua; settings: Avena fatua, post-emergence, 336 h, postemergence, visual rating, scale 0 (no effect) to 100 (complete control), read-out: Oat, Wild plant response rating
In short: as §1

morningglory = experiment: Test B pre-/postemergence herbicide test; type: in vivo, Ipomoea coccinea; settings: Ipomoea, 336 h; for pest or weed control at 125 g/ha: 125 g ai/ha; for pest or weed control at 500 g/ha: 500 g ai/ha
In short: as §3

lambsquarters = experiment: Test B pre-/postemergence herbicide test; type: in vivo, Chenopodium album; settings: Chenopodium album, 336 h; for pest or weed control at 125 g/ha: 125 g ai/ha; for pest or weed control at 500 g/ha: 500 g ai/ha
In short: as §2

ducksalad = experiment: Test B flooded paddy test; type: in vivo, Heteranthera limosa; settings: Heteranthera limosa, 336 h, 1000 g ai/ha, visual rating, scale 0 to 100 (0 no effect, 100 complete control), 13 to 15 days, read-out: Ducksalad plant response rating
In short: as §1

barnyardgrass [2] = experiment: Test B pre-/postemergence herbicide test; type: in vivo, Echinochloa crus-galli; settings: Echinochloa crus-galli; for pest or weed control at 125 g/ha: 125 g ai/ha; for pest or weed control at 500 g/ha: 500 g ai/ha
In short: as §3

Surinam grass = experiment: Test B pre-/postemergence herbicide test; type: in vivo, Urochloa decumbens; settings: Urochloa decumbens; for pest or weed control at 125 g/ha: 125 g ai/ha; for pest or weed control at 500 g/ha: 500 g ai/ha
In short: as §2

[3] = test system: small flower umbrella sedge; experiment: Test B flooded paddy test; type: in vivo, Cyperus difformis; settings: Cyperus difformis, 336 h, 1000 g ai/ha, visual rating, scale 0 to 100 (0 no effect, 100 complete control), 13 to 15 days, read-out: Sedge, Umbrella plant response rating
In short: as §1

[4] = post-emergence, postemergence, visual rating, scale 0 (no effect) to 100 (complete control), read-out: Pigweed plant response rating
[5] = post-emergence, postemergence, visual rating, scale 0 (no effect) to 100 (complete control), read-out: Velvetleaf plant response rating
[6] = post-emergence, postemergence, visual rating, scale 0 (no effect) to 100 (complete control), read-out: Foxtail, Giant plant response rating
[7] = post-emergence, postemergence, visual rating, scale 0 (no effect) to 100 (complete control), read-out: Cocklebur plant response rating
[8] = post-emergence, postemergence, visual rating, scale 0 (no effect) to 100 (complete control), read-out: Morningglory plant response rating
[9] = post-emergence, postemergence, visual rating, scale 0 (no effect) to 100 (complete control), read-out: Lambsquarters plant response rating
[10] = post-emergence, postemergence, visual rating, scale 0 (no effect) to 100 (complete control), read-out: Barnyardgrass plant response rating
[11] = post-emergence, postemergence, visual rating, scale 0 (no effect) to 100 (complete control), read-out: Surinam Grass plant response rating

With CCn1nc(C(C)(C)C)cc1C(=O)Nc1cc(C(=O)OC)ccn1 [Compound 151, methyl 2-[[[3-(1,1-dimethylethyl)-1-ethyl-1H-pyrazol-5-yl]carbonyl]amino]-4-pyridinecarboxylate] the plant injury at 500 g/ha (wheat) was 20%, the pest or weed control at 125 g/ha (pigweed; [4]) was 10% and the pest or weed control at 500 g/ha (pigweed; [4]) was 30%. For the same molecule, the pest or weed control at 500 g/ha (pigweed; pre-emergence, visual rating 0-100, 0 no effect, 100 complete control, read-out: Plant response rating, Pigweed) was 0%, the pest or weed control at 125 g/ha (pigweed; pre-emergence, preemergence, 0 to 100 scale, 0 is no effect, 100 is complete control, read-out: Plant response rating, Pigweed) was 0% and the pest or weed control at 125 g/ha (velvetleaf; [5]) was 10%. It also gave a pest or weed control at 500 g/ha (velvetleaf; [5]) of 20%, a pest or weed control at 500 g/ha (velvetleaf; pre-emergence, visual rating 0-100, 0 no effect, 100 complete control, read-out: Plant response rating, Velvetleaf) of 0% and a pest or weed control at 125 g/ha (velvetleaf; pre-emergence, preemergence, 0 to 100 scale, 0 is no effect, 100 is complete control, read-out: Plant response rating, Velvetleaf) of 0%. It also gave a plant injury at 1000 g/ha (rice) of 0%, a pest or weed control at 125 g/ha (giant foxtail; [6]) of 10% and a pest or weed control at 500 g/ha (giant foxtail; [6]) of 20%. For the same molecule, the pest or weed control at 500 g/ha (giant foxtail; pre-emergence, visual rating 0-100, 0 no effect, 100 complete control, read-out: Plant response rating, Foxtail, Giant) was 10%, the pest or weed control at 125 g/ha (giant foxtail; pre-emergence, preemergence, 0 to 100 scale, 0 is no effect, 100 is complete control, read-out: Plant response rating, Foxtail, Giant) was 0% and the pest or weed control at 125 g/ha (cocklebur; [7]) was 0%. The pest or weed control at 500 g/ha (cocklebur; [7]) was 0%, the pest or weed control at 500 g/ha (cocklebur; pre-emergence, visual rating 0-100, 0 no effect, 100 complete control, read-out: Plant response rating, Cocklebur) was 0% and the pest or weed control at 125 g/ha (cocklebur; pre-emergence, preemergence, 0 to 100 scale, 0 is no effect, 100 is complete control, read-out: Plant response rating, Cocklebur) was 0%. The pest or weed control at 125 g/ha (blackgrass; 125 g ai/ha) was 10%, the pest or weed control at 500 g/ha (blackgrass; 500 g ai/ha) was 30% and the pest or weed control at 1000 g/ha (barnyardgrass [1]) was 0%. The pest or weed control at 125 g/ha (wild oat; 125 g ai/ha) was 10%, the pest or weed control at 500 g/ha (wild oat; 500 g ai/ha) was 30% and the pest or weed control at 125 g/ha (morningglory; [8]) was 10%. For the same molecule, the pest or weed control at 500 g/ha (morningglory; [8]) was 30%, the pest or weed control at 500 g/ha (morningglory; pre-emergence, visual rating 0-100, 0 no effect, 100 complete control, read-out: Plant response rating, Morningglory) was 0% and the pest or weed control at 125 g/ha (morningglory; pre-emergence, preemergence, 0 to 100 scale, 0 is no effect, 100 is complete control, read-out: Plant response rating, Morningglory) was 0%. The pest or weed control at 125 g/ha (lambsquarters; [9]) was 0%, the pest or weed control at 500 g/ha (lambsquarters; [9]) was 50% and the pest or weed control at 500 g/ha (lambsquarters; pre-emergence, visual rating 0-100, 0 no effect, 100 complete control, read-out: Plant response rating, Lambsquarters) was 0%. The pest or weed control at 125 g/ha (lambsquarters; pre-emergence, preemergence, 0 to 100 scale, 0 is no effect, 100 is complete control, read-out: Plant response rating, Lambsquarters) was 0%, the pest or weed control at 1000 g/ha (ducksalad) was 0% and the pest or weed control at 125 g/ha (barnyardgrass [2]; [10]) was 0%. The pest or weed control at 500 g/ha (barnyardgrass [2]; [10]) was 10%, the pest or weed control at 500 g/ha (barnyardgrass [2]; pre-emergence, visual rating 0-100, 0 no effect, 100 complete control, read-out: Plant response rating, Barnyardgrass) was 10% and the pest or weed control at 125 g/ha (barnyardgrass [2]; pre-emergence, preemergence, 0 to 100 scale, 0 is no effect, 100 is complete control, read-out: Plant response rating, Barnyardgrass) was 0%. The pest or weed control at 125 g/ha (Surinam grass; [11]) was 10%, the pest or weed control at 500 g/ha (Surinam grass; [11]) was 10% and the pest or weed control at 500 g/ha (Surinam grass; pre-emergence, visual rating 0-100, 0 no effect, 100 complete control, read-out: Plant response rating, Surinam Grass) was 10%. It also gave a pest or weed control at 125 g/ha (Surinam grass; pre-emergence, preemergence, 0 to 100 scale, 0 is no effect, 100 is complete control, read-out: Plant response rating, Surinam Grass) of 0% and a pest or weed control at 1000 g/ha [3] of 60%.
